Measurements reported in patent US11090307B2, “Treating male senescence” (National Institute of Biological Sciences, Beijing, priority 2017, dated 2021).

Assays:
[1] = tested on: phospho-MLKL in the testes; assay: TSZ-induced necroptosis in testes of mice fed RIPA-56-containing chow; format: in vivo
Method: We therefore evaluated the effects of a newly-identified, highly-potent, and highly-specific RIP1 kinase inhibitor from our laboratory (henceforth ‘RIPA-56’)(Ren et al., 2017) by incorporating it into mouse food at 150 mg/kg and 300 mg/kg doses. We first tested the effect of RIPA-56 on necroptosis in testes by injecting TSZ into testes of 2-month old mice after feeding the mice with increasing concentrations of RIPA-56-containing chow for one week.

[2] = tested on: 13-month old male wild type mice; assay: Long-term feeding of 13-month old male wild type mice with RIPA-56 chow for two months; format: in vivo
Method: We subsequently chose the 300 mg/kg dose to continuously feed 13-month old male wild type mice for two months to study the long-term effects of blocking necroptosis on testes. […] Additionally, the testosterone level of RIPA-56-treated mice remained high, while that of control mice decreased. […] Finally, the fertility rates of the RIPA-56-treated mice were much higher than those of control mice with 19 out of 25 mice on the RIPA-56 diet were fertile while only 6 out of 23 mice on normal diet produced progeny.

CCC(C)(C)C(=O)N(O)Cc1ccccc1 [RIPA-56]
block of necroptosis in testes ([1]; 300 mg/kg dose in chow, one week, TSZ into testes): completely block necroptosis | appearance of TSZ-induced phospho-MLKL in the testes ([1]; 2-month old mice, chow with increasing concentrations (150 mg/kg and 300 mg/kg) for one week, then TSZ into testes): blocked the appearance of TSZ-induced phospho-MLKL in the testes in a dose-dependent manner | empty seminiferous tubules ([2]; 300 mg/kg in food, two months): hardly any seminiferous vesicles were empty | fertility rate (fertile mice) ([2]; 300 mg/kg in food, two months): 19 out of 25 | gross male aging metrics (body weight, fat deposition, libido, fertility, muscle mass, prostate hyperplasia) ([2]; 300 mg/kg in food, two months): more youthful gross male aging metrics | mass of seminal vesicles ([2]; 300 mg/kg in food, two months): around 1,000 milligrams | testosterone level ([2]; 300 mg/kg in food, two months): remained high | body weight ([2]; 300 mg/kg in food, two months, vs control chow diet): weighed less than mice fed with control chow diet | age-associated weight gain ([2]; necroptosis blocked pharmaceutically): much less age-associated wright gain
